According to US11752125B2, “Anti-neuroinflammatory and protective compounds in Achillea fragrantissima” (THE STATE OF ISRAEL MINISTRY OF AGRICULTURE & RURAL …, priority 2013, dated 2023):

Legend:
N2a neuronal cells = assay: Aβ25-35-induced neuronal cell death (LDH, crystal violet); format: cell-based; details: Aβ25-35 25 μM, 20 hr; LDH and crystal violet
Protocol: Treat N2a neuronal cells with 25 micromolars of freshly diluted Aβ25-35 in the presence or absence of AcA or TTF.
N2a neuronal cells were treated with Aβ25-35 (25 μM) and TTF. Cytotoxicity (FIG. 10A) and viability (FIG. 10B) were obtained through LDH method and Crystal violet staining respectively and measured 20 hr later. The results are the mean±SEM of two different experiments (n=15).
N2a neuronal cells were treated with Aβ25-35 (25 μM) and achillolide A. Cytotoxicity (FIG. 27A) viability (FIG. 27B) and ROS levels (FIG. 27C) were measured 20 hr later. The results are the mean±SEM of two different experiments (n=16).

astrocytes = assay: Cellular antioxidant activity (ABAP peroxyl radicals) in astrocytes; format: cell-based; details: for effect on ABAP-generated peroxyl radical (ROS) fluorescence: astrocytes, ABAP 0.6 mM
Protocol: In the cellular antioxidant activity (CAA) assay, cell viability was determined by a modification of the crystal violet assay (Kueng et al., 1989) as follows. At the end of cell treatments, cells were fixed with 150 μL of 5% (v/v) formaldehyde (in PBS) for 15 min at room temperature. Plates were washed by submersion in de-ionized water, dried and stained for 15 min with 150 μL of a 1% crystal violet solution. After careful aspiration of the crystal violet solution the plates were washed with de-ionized water, and dried prior to the solubilization of the bound dye with 150 μL of a 33% aqueous glacial acetic acid solution. The optical density of the plates was measured at 540 nm (with a 690 nm reference filter) in a microplate spectrophotometer.
Intracellular ROS production was detected using the non-fluorescent cell permeating compound, 2′7′-dichlorofluorescein diacetate (DCF-DA). DCF-DA is hydrolyzed by intracellular esterases and then oxidized by ROS to a fluorescent compound 2′-7′-DCF. Peroxyl radicals are generated by thermolysis of 2,2′-Azobis(amidinopropane) (ABAP) at physiological temperature. ABAP decomposes at approximately 1.36×10^−6s^−1 at 37° C., producing at most 1×10^12 radicals/mL/s (Bowry and Stocker, 1993; Niki et al., 1986; Thomas et al., 1997). Astrocytes (300,000 cells/well) were plated in DMEM containing 2% FBS, 8.4 mM HEPES, 2 mM glutamine, 100 U/mL penicillin and 100 μg/mL streptomycin, onto 24 well plates. In order to measure the ability of TTF to enter the cells and prevent the formation of dichlorofluorescein (DCF) by ABAP-generated peroxyl radicals, cells were incubated for 1 h with TTF. […] The fluorescence, which indicates ROS levels, was measured in a plate reader with excitation at 485 nm and emission at 520 nm.
2. […] Read “time 0” fluorescence (Ex: 485 nm and Em: 528 nm); 7. […] Read fluorescence at 3, 6, and 24 hr Ex: 485 nm and Em: 528 nm; 9. […]
Astrocytes were incubated with TTF or quercetin for 2 h. […] ABAP (0.6 mM) was added to the culture and the fluorescence intensity, representing ROS levels was measured. […]

Compound | effect on Aβ25-35-induced cytotoxicity (N2a neuronal cells) | effect on ABAP-generated peroxyl radical (ROS) fluorescence (astrocytes) | cell viability in the cellular antioxidant activity assay (astrocytes; crystal violet, 20 h after ABAP)
C=C1CCC2=C(CO)C(=O)O[C@H]2/C=C(\C)[C@H](OC(C)=O)CC1=O [achillolide A] | prevents the cytotoxic effect at nanomolar concentrations | – | –
COc1cc(-c2oc3cc(OC)c(OC)c(O)c3c(=O)c2O)ccc1O [TTF, 3,5,4′-trihydroxy-6,7,3′-trimethoxyflavone] | prevents the cytotoxic effect at nanomolar concentrations | moderated the increase in ROS-induced fluorescence | cell viability was not affected
O=c1c(O)c(-c2ccc(O)c(O)c2)oc2cc(O)cc(O)c12 [quercetin, 3,3′,4′,5,7-Pentahydroxyflavone, reference compound] | – | similarly effective as TTF | –
